# Compound: CN(c1ncccc1CNc1nc(Nc2ccc3c(c2)CC(=O)N3)ncc1C(F)(F)F)S(C)(=O)=O + CC(C)C[C@H](NC(=O)[C@H](Cc1ccccc1)NC(=O)c1cnccn1)B(O)O [Bortezomib] (partner 0.002 µM)
# Assay: relative viability (nuclei count vs DMSO), 5 days (fraction); higher = more cells survive
# Outline: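 Cells from lung cancer lines were seeded into 1536-well plates and, one day later, dosed by pin tool. Treatments were either a single drug or a fixed dose of an anchor drug with five library-drug doses (not always all listed) in √10 steps. After 5 days, nuclei were stained in a one-step fixation (final 0.05% Triton X-100, 1% formaldehyde, 1 ug/ml Hoechst) and counted on 4× images, and relative viability is the treated-to-vehicle nuclei ratio, as the median of duplicate plates.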
Cell Line,relative viability (first compound 0.01 µM),relative viability (first compound 0.03162 µM),relative viability (first compound 0.1 µM),relative viability (first compound 0.3162 µM),relative viability (first compound 1 µM)
H3255,0.758,0.783,0.819,0.505,0.784
EPLC-272H,0.972,0.774,0.854,0.944,0.758
PC-3 [JPC-3],0.853,0.801,0.827,0.855,0.829
EKVX,1.02,1.19,1.11,0.923,0.83
ChaGo-K-1,1.01,0.803,1.11,,1.09
NCI-H23,1.22,1.38,1.09,1.08,1.03
EMC-BAC-2,1.08,1.1,1,1.06,1.08
LOU-NH91,0.497,0.47,0.482,0.482,0.459
LU99A,1.15,1.26,1.09,1.43,1.22
NCI-H460,1.18,1.39,1.13,1.07,1.13
201T,1.1,1.09,1.04,1.01,1.08
NCI-H2405,1.05,0.972,1.03,0.865,0.813
NCI-H1703,0.311,0.295,0.415,0.481,0.235
NCI-H1755,0.985,0.967,0.983,0.849,0.826
NCI-H2087,1.13,0.699,0.882,0.807,0.768
NCI-H2228,0.817,1.24,1.05,1.06,1.02
NCI-H727,0.897,1,0.73,0.765,0.731
NCI-H650,0.69,0.846,0.843,0.692,0.649
NCI-H520,0.695,0.513,0.489,1.13,0.635
EBC-1,0.596,0.5,0.56,0.585,0.499
NCI-H661,0.928,1.06,0.717,0.837,1.04
NCI-H1299,1.05,1.01,1.04,0.996,1.02
NCI-H1993,0.993,1.22,1.11,1.04,0.907

Cell Line,relative viability (first compound 0.01 µM),relative viability (first compound 0.03162 µM),relative viability (first compound 0.1 µM),relative viability (first compound 0.3162 µM),relative viability (first compound 1 µM)
NCI-H838,0.767,0.923,0.88,0.942,0.598
NCI-H1437,0.612,0.462,0.527,0.514,0.405
LCLC-103H,1.13,1.05,1.18,0.937,1.02
NCI-H441,0.68,0.859,0.36,0.542,0.377
SK-LU-1,1.33,1.28,0.839,1.24,1.12
BEN,0.821,0.772,0.993,0.865,0.856
LC-2-ad,1.04,1,1.06,0.961,0.799
COR-L23,0.967,1.01,1.05,0.951,0.894
NCI-H1650,0.229,0.196,0.232,,0.192
RERF-LC-KJ,1.08,1.23,1.11,1.13,0.999
NCI-H1915,0.988,1.05,1.01,0.888,0.963
NCI-H596,0.793,0.973,0.93,1.1,1.28
IA-LM,0.807,0.886,0.727,0.877,0.666
NCI-H2009,1.32,1.04,1.02,0.991,0.955
NCI-H2126,1.12,1.1,1.04,1.1,1.1
LXF-289,1.05,1.01,0.991,0.989,0.978
NCI-H1563,0.906,0.808,0.849,0.867,0.876
HCC-44,0.963,0.931,0.913,0.829,0.824
PC-14,1.02,0.935,0.984,0.799,0.821
HOP-62,0.839,0.673,0.939,0.803,0.911
NCI-H1666,0.887,0.678,0.668,0.708,0.589
NCI-H1355,1.29,1.28,1.14,1.14,1.07
HCC-827,1.1,1.06,1.09,1.02,1.05

Cell Line,relative viability (first compound 0.01 µM),relative viability (first compound 0.03162 µM),relative viability (first compound 0.1 µM),relative viability (first compound 0.3162 µM),relative viability (first compound 1 µM)
HARA,1.12,1.07,1.13,1.2,1.09
HCC-366,0.927,1.24,1.09,1.02,1.06
NCI-H322M,1.26,1.41,,1.38,1.44
NCI-H2347,1.08,0.93,0.927,0.801,0.45
NCI-H1975,0.423,0.449,0.44,0.395,0.276
UMC-11,0.795,0.634,0.649,0.589,0.672
ABC-1,0.308,0.273,0.396,0.376,0.329
A-427,1.09,1.01,0.998,0.942,0.965
LCLC-97TM1,1.04,0.74,0.439,0.559,0.526
HCC-15,1.04,1,0.898,0.88,0.829
NCI-H647,0.934,1.52,1.04,0.931,0.886
SW 1573,1.17,0.898,0.977,1.05,1.11
NCI-H1651,0.936,1.04,0.939,0.885,0.9
NCI-H1792,1.02,0.999,0.83,0.924,0.941
NCI-H2023,0.985,1.02,0.963,0.945,0.938
COR-L 105,0.889,0.733,0.835,0.814,0.595
NCI-H1734,1.06,1.1,0.996,0.857,0.949
NCI-H3122,1.04,1.03,1.01,0.968,0.891
CAL-12T,1.07,0.886,0.856,0.919,0.878
HCC-78,0.567,0.587,0.502,0.462,0.422
NCI-H2085,1.06,1.11,1.04,1,0.949
